For data set [1] the following is noted: human, in vivo.
The test system of data set [2] is end stage liver disease (ESLD) patients. The experiment in a line: Model for End-Stage Liver Disease (MELD) score analysis in supplemented patients awaiting liver transplantation. The format is in vivo, human. The source says: Vital organs for study included: cardiac muscle acquired from heart transplant recipients with end stage heart failure (TCP n=3, TE n=5); liver from transplant recipients with end-stage liver (TCP n=3, TE n=4); adipose acquired from abdominal adipose tissue of morbidly obese patients undergoing reconstructive plastic surgery (TCP n=4, TE n=5); and brain tissue from recalcitrant epilepsy patients requiring resection (TE n=4). Control brain samples were taken from autopsy participants donated to science and represent vitamin E concentrations of the general population, without dietary TE consumption (n=4). […] TCP gel capsules contained 200 mg of d-alpha-tocopherol. Vitamin E gel capsules were sealed in blister packs. To determine compliance, study participants mailed empty packages back to the clinic every two weeks. Participant supplementation compliance for the study was >90%. Random-effects linear regression was used to estimate the individual slope and intercepts of the MELD score pre- and post-supplementation for each subject. This was performed separately for TCP and TE supplementation groups. Random-effects regression takes into account the variability within participants due to repeated measures and the variability between participants in order to estimate the standard error. Due to the serendipitous nature of the MELD score findings the length of supplementation was not standardized between patients awaiting liver transplantation. The time scale is in days relative to beginning of the patient's vitamin E supplementation. […] The percent change in the slope from pre- to post-supplementation was calculated. Summary statistics are presented for pre- and post-slope and the percent change across TE and TCP supplementation groups. Wilcoxon rank-sum was used to test differences in slope and percent change in slope between TCP and TE. Wilcoxon signed-rank test was used to compare pre- to post-supplementation.

The conditions of data set [3]: human, in vivo. This is another data set of the same source.
The conditions of data set [4]: human, in vivo. This is another data set of the same source.
Data set [5] concerns the target T1, Tocopherol transfer protein (TTP) (Homo sapiens, UniProt P49638).
T1 sequence (P49638 1-278): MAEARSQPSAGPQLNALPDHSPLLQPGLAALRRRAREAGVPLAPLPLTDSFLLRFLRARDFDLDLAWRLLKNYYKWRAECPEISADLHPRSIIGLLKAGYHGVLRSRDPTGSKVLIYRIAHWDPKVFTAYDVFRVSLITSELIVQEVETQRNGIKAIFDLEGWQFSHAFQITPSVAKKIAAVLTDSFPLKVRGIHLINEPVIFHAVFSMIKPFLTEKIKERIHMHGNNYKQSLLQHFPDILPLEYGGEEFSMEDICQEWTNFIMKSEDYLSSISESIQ
The conditions noted are these: background statement; cited from earlier work.

The target of the next data set is T2, HMG-CoA reductase (Homo sapiens, UniProt P04035).
T2 sequence (P04035 1-888): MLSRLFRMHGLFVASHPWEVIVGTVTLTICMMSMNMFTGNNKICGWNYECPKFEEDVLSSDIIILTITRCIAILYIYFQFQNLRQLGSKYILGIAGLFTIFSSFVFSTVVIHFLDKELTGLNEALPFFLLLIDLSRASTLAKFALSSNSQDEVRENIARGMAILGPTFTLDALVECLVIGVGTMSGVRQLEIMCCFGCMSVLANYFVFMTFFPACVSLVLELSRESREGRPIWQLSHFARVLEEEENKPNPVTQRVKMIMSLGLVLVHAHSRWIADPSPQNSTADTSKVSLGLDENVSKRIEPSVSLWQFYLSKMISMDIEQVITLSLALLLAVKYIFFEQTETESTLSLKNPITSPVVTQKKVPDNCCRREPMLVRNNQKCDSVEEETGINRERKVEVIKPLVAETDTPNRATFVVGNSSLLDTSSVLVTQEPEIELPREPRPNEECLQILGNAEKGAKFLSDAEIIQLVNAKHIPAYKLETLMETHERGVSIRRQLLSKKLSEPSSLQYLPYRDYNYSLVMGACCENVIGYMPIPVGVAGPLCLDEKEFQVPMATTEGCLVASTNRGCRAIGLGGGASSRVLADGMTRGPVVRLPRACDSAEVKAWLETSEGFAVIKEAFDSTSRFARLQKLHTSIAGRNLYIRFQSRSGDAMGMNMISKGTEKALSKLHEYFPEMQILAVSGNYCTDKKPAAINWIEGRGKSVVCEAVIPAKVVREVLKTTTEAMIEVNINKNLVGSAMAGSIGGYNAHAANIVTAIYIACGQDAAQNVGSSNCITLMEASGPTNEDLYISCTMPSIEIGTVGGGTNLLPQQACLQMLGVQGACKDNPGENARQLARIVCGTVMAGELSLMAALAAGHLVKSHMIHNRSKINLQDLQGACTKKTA
The conditions noted are these: hepatic enzyme responsible for cholesterol synthesis; background statement; cited from earlier work.

A short description of data set [6]: Skin biopsy vitamin E concentration following oral TE supplementation, Healthy Participants Group. The conditions noted are these: TE 400 mg daily, 12 wk vs baseline.
The nature of data set [7]: Brain vitamin E concentration, Surgical Patients Group. Conditions: for Brain vitamin E concentration, 25th percentile / Brain vitamin E concentration, 50th percentile / Brain vitamin E concentration, 75th percentile / Brain vitamin E concentration, mean: n = 4.
A short description of data set [8]: Liver vitamin E concentration, Surgical Patients Group.
Data set [9] in a line: Abdominal adipose vitamin E concentration, Surgical Patients Group. Conditions: for Adipose vitamin E concentration, 25th percentile / Adipose vitamin E concentration, 50th percentile / Adipose vitamin E concentration, 75th percentile / Adipose vitamin E concentration, mean: 400 mg daily oral.
Data set [10] can be described thus: Heart (cardiac muscle) vitamin E concentration, Surgical Patients Group. Conditions: for Heart vitamin E concentration, 25th percentile / Heart vitamin E concentration, 50th percentile / Heart vitamin E concentration, 75th percentile / Heart vitamin E concentration, mean: 400 mg daily oral.
The mark [11] stands for this setting: individual patient, 400 mg daily oral.
Setting [12] is: TE supplemented, 400 mg daily oral.
Where [13] appears, read: TE supplemented, 400 mg daily oral, n = 4.

Values joined by “and” are separate entries in the source; they are usually repeats but may differ in a detail not shown here. Equal values may be shown once. Read-outs that look alike come from different tables or passages of the source.

With `Cc1c(O)cc2c(c1C)O[C@](C)(CCC[C@H](C)CCC[C@H](C)CCCC(C)C)CC2` [γTCP], in [1], the “Brain vitamin E concentration, 25th percentile” value is on record as 0.98 nmol/g; the “Brain vitamin E concentration, 50th percentile” value turned out to be 2.51 nmol/g; the “Brain vitamin E concentration, 75th percentile” value amounted to 10.6 nmol/g; the “Brain vitamin E concentration, mean” value is reported as 5.77 nmol/g.

In the case of `Cc1c(C)c2c(c(C)c1O)CC[C@@](C)(CCC[C@H](C)CCC[C@H](C)CCCC(C)C)O2` [TCP, d-alpha-tocopherol], the “participants with a reduction (improvement) in MELD score” value in data set [2] (ESLD participants, oral supplementation 400 mg daily) is 20%. For the same compound, in data set [2] (individual patient awaiting liver transplantation, before supplementation (baseline)), the “MELD score Pre-supplement Intercept” value is 16.4 (2×) and 15.7 and 16.5 and 16.9. Also, in data set [2] (setting [11]), the “MELD score Post-supplement Intercept” value is 14.2 (3×) and 14.0 and 14.4; the “MELD score slope % Change (pre vs. post)” value was 372% and −155% and 1028% and 619% and 598%. For the same compound, the “MELD score Post-supplement Slope” value in data set [2] (individual patient, 400 mg daily oral, slope multiplied by 10,000, time in days) was 483 and −60 and 1139 and 702 and 712. In [2] (individual patient, before supplementation (baseline), slope multiplied by 10,000, time in days), the “MELD score Pre-supplement Slope” value was 102 (2×) and 109 and 101 and 98.

For the compound `Cc1c(C)c2c(c(C)c1O)CC[C@@](C)(CCC[C@H](C)CCC[C@H](C)CCCC(C)C)O2` [αTCP, d-alpha-tocopherol], in data set [1], the “Brain vitamin E concentration, 25th percentile” value is 41.1 nmol/g; the “Brain vitamin E concentration, 50th percentile” value turned out to be 43.3 nmol/g; the “Brain vitamin E concentration, 75th percentile” value is given as 60.0 nmol/g; the “Brain vitamin E concentration, mean” value was 50.5 nmol/g.

Turning to `CC(C)=CCC/C(C)=C/CC/C(C)=C/CC[C@]1(C)CCc2cc(O)cc(C)c2O1` [δTE, d-delta-tocotrienol], in data set [3], the “adipose concentration relative to controls” value is around 10 fold. Moreover, in data set [1], the “Brain vitamin E concentration, 25th percentile” value stood at 0.09 nmol/g; the “Brain vitamin E concentration, 50th percentile” value amounted to 0.15 nmol/g; the “Brain vitamin E concentration, 75th percentile” value worked out at 0.17 nmol/g; the “Brain vitamin E concentration, mean” value worked out at 0.13 nmol/g. Moreover, the “concentration in liver tissue relative to that found in adipose” value in [4] was “less than 10%”.

Regarding d-alpha-tocotrienol [αTE], the “adipose concentration relative to controls” value in data set [3] is around 10 fold. Further, in data set [1], the “Brain vitamin E concentration, 25th percentile” value is on record as 0.03 nmol/g; the “Brain vitamin E concentration, 50th percentile” value is recorded as 0.04 nmol/g; the “Brain vitamin E concentration, 75th percentile” value was 0.05 nmol/g; the “Brain vitamin E concentration, mean” value was 0.04 nmol/g. Besides, in [4], the “concentration in liver tissue relative to that found in adipose” value was “less than 10%”. For the same compound, the “affinity of TTP to bind and transport, relative to αTCP” value in data set [5] was 12%. Moreover, the “effect on activity of HMG-CoA reductase” value at HMG-CoA reductase is given as “suppresses the activity”. For the same compound, the “effect of oral TE supplementation on skin concentration” value in data set [6] is listed as “significantly elevated”.

Consider `CC(C)=CCC/C(C)=C/CC/C(C)=C/CC[C@]1(C)CCc2cc(O)c(C)c(C)c2O1` [γTE, d-gamma-tocotrienol], for which, in data set [7] (TCP supplemented), the “Brain vitamin E concentration, 25th percentile” value is listed as 0.03 nmol/g; the “Brain vitamin E concentration, 50th percentile” value worked out at 0.05 nmol/g; the “Brain vitamin E concentration, 75th percentile” value came out at 0.08 nmol/g; the “Brain vitamin E concentration, mean” value is given as 0.06 nmol/g. For the same compound, the “brain concentration, TE supplemented compared with control (cadaveric) brain” value in [7] (TE 400 mg daily) was “significantly elevated”. Further, in [7] (setting [12]), the “Brain vitamin E concentration, 25th percentile” value worked out at 0.47 nmol/g; the “Brain vitamin E concentration, 50th percentile” value is recorded as 0.70 nmol/g; the “Brain vitamin E concentration, 75th percentile” value turned out to be 1.19 nmol/g; the “Brain vitamin E concentration, mean” value came to 0.83 nmol/g. Also, in data set [8] (400 mg daily), the “liver concentration, TE supplemented compared with TCP supplemented patients” value is “increased”. Also, in data set [8] (setting [13]), the “Liver vitamin E concentration, 25th percentile” value was 0.17 nmol/g; the “Liver vitamin E concentration, 50th percentile” value is recorded as 0.45 nmol/g; the “Liver vitamin E concentration, 75th percentile” value turned out to be 1.1 nmol/g; the “Liver vitamin E concentration, mean” value is reported as 0.61 nmol/g. In data set [9] (TCP supplemented, n = 4), the “Adipose vitamin E concentration, 25th percentile” value was 0.71 nmol/g; the “Adipose vitamin E concentration, 50th percentile” value is on record as 1.72 nmol/g; the “Adipose vitamin E concentration, 75th percentile” value is 3.21 nmol/g; the “Adipose vitamin E concentration, mean” value is reported as 1.96 nmol/g. For the same compound, the “adipose concentration relative to controls” value in data set [9] (TE supplemented vs controls, P<0.05) is on record as around 10 fold. In data set [9] (TE supplemented, n = 5), the “Adipose vitamin E concentration, 25th percentile” value is 12.4 nmol/g; the “Adipose vitamin E concentration, 50th percentile” value turned out to be 17.1 nmol/g; the “Adipose vitamin E concentration, 75th percentile” value is 23.5 nmol/g; the “Adipose vitamin E concentration, mean” value is 17.2 nmol/g. Also, the “heart muscle level, TE supplemented compared with participants receiving TCP alone” value in [10] (400 mg daily) was “significantly higher”. Moreover, in [10] (TCP supplemented, n = 3), the “Heart vitamin E concentration, 25th percentile” value came out at 0.02 nmol/g; the “Heart vitamin E concentration, 50th percentile” value was determined as 0.23 nmol/g; the “Heart vitamin E concentration, 75th percentile” value turned out to be 0.26 nmol/g; the “Heart vitamin E concentration, mean” value was found to be 0.17 nmol/g. Further, in [10] (TE supplemented, n = 5), the “Heart vitamin E concentration, 25th percentile” value was 2.07 nmol/g; the “Heart vitamin E concentration, 50th percentile” value turned out to be 6.70 nmol/g; the “Heart vitamin E concentration, 75th percentile” value is on record as 14.4 nmol/g; the “Heart vitamin E concentration, mean” value was determined as 8.85 nmol/g. Moreover, the “effect of oral TE supplementation on skin concentration” value in data set [6] is “significantly elevated”.
